The target of assay [1] is T1, Polyunsaturated fatty acid 5-lipoxygenase (Homo sapiens) (UniProt P09917).
T1 sequence (whole entry): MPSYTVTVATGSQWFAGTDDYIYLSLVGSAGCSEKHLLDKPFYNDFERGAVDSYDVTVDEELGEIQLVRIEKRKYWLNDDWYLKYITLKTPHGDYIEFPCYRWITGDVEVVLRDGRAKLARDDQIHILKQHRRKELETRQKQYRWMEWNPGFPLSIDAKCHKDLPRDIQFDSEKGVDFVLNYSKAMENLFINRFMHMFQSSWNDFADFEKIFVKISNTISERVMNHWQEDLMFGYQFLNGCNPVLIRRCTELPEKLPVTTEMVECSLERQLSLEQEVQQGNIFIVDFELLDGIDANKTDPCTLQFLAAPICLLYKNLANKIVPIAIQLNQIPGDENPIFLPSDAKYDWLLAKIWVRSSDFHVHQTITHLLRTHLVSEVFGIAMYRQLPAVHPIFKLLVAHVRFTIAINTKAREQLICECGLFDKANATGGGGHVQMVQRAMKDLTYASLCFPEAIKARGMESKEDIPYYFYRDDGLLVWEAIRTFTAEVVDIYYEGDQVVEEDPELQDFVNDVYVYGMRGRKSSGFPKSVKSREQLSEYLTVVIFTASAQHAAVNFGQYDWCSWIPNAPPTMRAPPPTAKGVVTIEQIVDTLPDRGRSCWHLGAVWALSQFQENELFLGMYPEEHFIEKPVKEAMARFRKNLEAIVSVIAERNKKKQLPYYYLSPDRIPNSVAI
The experiment in a line: Inhibition of recombinant human 5-LOX expressed in Escherichia coli at 20 uM using arachidonic acid as substrate by UV-vis spectrophotometric method relative to control.

Assay [2] concerns the target T2, Polyunsaturated fatty acid 5-lipoxygenase (Homo sapiens, UniProt P09917).
T2 sequence (P09917 whole entry): T1 sequence (whole entry)
Briefly: Inhibition of recombinant human 5-LOX expressed in Escherichia coli using arachidonic acid as substrate by UV-vis spectrophotometric method.

The target of assay [3] is T1, Polyunsaturated fatty acid 5-lipoxygenase (Homo sapiens). Briefly: Inhibition of recombinant human 5-LOX pseudoperoxidase activity expressed in Escherichia coli BL21 assessed as compound redox activity by measuring reduction in absorption at 10 uM using 13(S)-HpODE as substrate by UV-vis spectrophotometric method relative to control. Details: scale not given: the % may be the effect or the level left.

The nature of assay [4]: Antioxidant activity assessed as DPPH radical scavenging activity at 20 uM incubated for 30 mins under dark condition relative to control. It counts as functional. In general terms: Loss of DPPH colour is used to gauge radical scavenging.
Assay [5] has as its target T2, Polyunsaturated fatty acid 5-lipoxygenase. Briefly: Inhibition of human 5-LOX using arachidonic acid as substrate measured after 10 mins by ELISA. (In an ELISA, binding on a coated surface is turned into a signal by an enzyme label.)

Each structure is given as a SMILES string. Active and inactive are the calls of the source. The rule behind the calls is not given here.

The results in this text go back to ChEMBL document CHEMBL4411316, “Design, synthesis and identification of novel coumaperine derivatives for inhibition of human 5-LOX: Antioxidant, pseudoperoxidase and docking studies” (Bioorg Med Chem, 2019).

Broadly, the inhibition is how much of the control response was suppressed. A word on the IC50: it is the concentration needed to halve the response being measured.

With `COc1ccc(/C=C/C=C/C(=O)N2CCCCC2)cc1OC`, the inhibition in assay [1] was determined as 51.9%. The same measure, in the same setting: next, `COc1cc(/C=C/C=C/C(=O)N2CCCCC2)ccc1O`: 55.5%; `COc1ccc(/C=C/C=C/C(=O)N2CCCCC2)c(OC)c1OC`: 36%; `O=C(/C=C/C=C/c1ccc2c(c1)OCO2)N1CCCCC1`: 47.5%. Still for that read-out and setting: next, `COc1cc(/C=C/C=C/C(=O)N2CCCCC2)cc(OC)c1OC`: 66.7%; `O=C(/C=C/C=C/c1ccccc1)N1CCCCC1`: 36.3%. On to `O=C(/C=C/C=C/c1cc(O)c(O)c(O)c1)N1CCCCC1`, for which, in assay [2], the IC50 worked out at 2.3 µM. For the same compound, the Activity stood at 50.8% in assay [3] and 71.3% in assay [4]. Besides, the inhibition in assay [1] was determined as 82.5%.

In the case of `COc1ccc(/C=C/C=C/C=C/C(=O)N2CCCCC2)cc1`, the inhibition in assay [1] was 1.08%. Still for that read-out and setting: to `O=C(/C=C/C=C/c1ccc(Cl)cc1)N1CCCCC1` belongs 14.5%. Regarding `COC1=C(OC)C(=O)C(CCCCCCCCCCO)=C(C)C1=O` [IDEBENONE], the 50% inhibitory concentration (IC50) in assay [5] is greater than 10 µM. Consider `O=C(/C=C/C=C/c1ccc(O)c(O)c1)N1CCCCC1`, for which the IC50 in assay [2] was 2.1 µM. Besides, the Activity in assay [3] was found to be 57.4%; in assay [4], 76.8%. Besides, the inhibition in assay [1] stood at 82.8%. In the case of `CC(=O)Oc1ccc(/C=C/C=C/C(=O)N2CCCCC2)cc1`, the inhibition in assay [1] was 18.3%. Still for that read-out and setting: to `CN(C)c1ccc(/C=C/C=C/C=C/C(=O)N2CCCCC2)cc1` belongs 27.4%. On the same count and under the same terms, to `COc1cc(/C=C/C=C/C(=O)N2CCCCC2)cc(OC)c1O` belongs 32.7%.

On to `COc1ccc(/C=C/C=C/C(=O)N2CCCCC2)cc1`, for which the inhibition in assay [1] was determined as 42.6%. Still for that read-out and setting: next, `CN(C)c1ccc(/C=C/C=C/C(=O)N2CCCCC2)cc1`: 13.4%; `O=C(/C=C/C=C/c1ccc(F)cc1)N1CCCCC1`: 48.7%. As for `O=C(/C=C/c1ccc2c(c1)OCO2)N1CCCCC1`, in assay [1], the inhibition is 39.9%.

Turning to `COc1cc(/C=C/C=C/C(=O)N2CCCCC2)cc(OC)c1`, in assay [1], the inhibition was determined as 64.9%.

In the case of `O=C(/C=C/C=C/c1ccc(O)cc1)N1CCCCC1`, the inhibition in assay [1] stood at 44.4%. With `O=C(/C=C/C=C/C=C/c1ccc2c(c1)OCO2)N1CCCCC1`, the outcome in assay [3] was inactive. Further, the inhibition in assay [1] amounted to 76%. Further, the Activity in assay [4] was found to be 0.9%. `O=C(/C=C/C=C/C=C/c1ccc(O)c(O)c1)N1CCCCC1`: the inhibition in assay [1] was 30.3%.

In assay [5], `COc1cc(/C=C/c2ccc(O)cc2)cc(OC)c1` [PTEROSTILBENE] registered an IC50 of 9.32 µM. Take `COc1cc(OC)c(/C=C/C=C/C(=O)N2CCCCC2)c(OC)c1`: the result in assay [3] was inactive. For the same compound, in assay [1], the inhibition was determined as 77.1%. For the same compound, in assay [4], the Activity is 3.6%.

`O=C1O[C@H]([C@@H](O)CO)C(O)=C1O`: the Activity in assay [4] was 80.1%. Consider `O=C(/C=C/c1ccc(O)c(O)c1)N1CCCCC1`, for which the inhibition in assay [1] was found to be 55.2%.

For the compound `O=C(/C=C/C=C/c1ccc(OC2CCCC2)cc1)N1CCCCC1`, in assay [1], the inhibition came out at 16.1%.

`Oc1cc(O)cc(/C=C/c2ccc(O)cc2O)c1` [OXYRESVERATROL] returned an IC50 in assay [5] of 18.5 µM. Take `CSc1ccc(/C=C/C=C/C(=O)N2CCCCC2)cc1`: the inhibition in assay [1] came to 11.8%.
